Activity calls are given as the source filed them. How the calls were made is not given here.
Test system: CCRIS mutagenicity, Ames/micronucleus/aberration tests
Test: CCRIS mutagenicity studies
[1] = Test System: AMES SALMONELLA TYPHIMURIUM, Strain/Indicator: TA97, Metabolic Activation: NONE, Method: PREINCUBATION
[2] = Test System: AMES SALMONELLA TYPHIMURIUM, Strain/Indicator: TA98, Metabolic Activation: NONE, Method: PREINCUBATION
[3] = Test System: AMES SALMONELLA TYPHIMURIUM, Strain/Indicator: TA100, Metabolic Activation: NONE, Method: PREINCUBATION
[4] = Test System: AMES SALMONELLA TYPHIMURIUM, Strain/Indicator: TA1535, Metabolic Activation: NONE, Method: PREINCUBATION
[5] = End Point: IN VIVO MICRONUCLEUS, Test System: BONE MARROW POLYCHROMATIC ERYTHROCYTES, Species: MOUSE, Strain/Sex: KM/MALE, FEMALE, Route: IP INJECTION
[6] = Test System: AMES SALMONELLA TYPHIMURIUM, Strain/Indicator: TA100, Metabolic Activation: NONE, Method: STANDARD PLATE

Q: With `CCCCCCCCCCCCOCC1CO1` (stereo not given) as the compound, how does the mutagenic call (Test System: AMES SALMONELLA TYPHIMURIUM, Strain/Indicator: TA97, Metabolic Activation: HAMSTER, LIVER, S-9, AROCLOR 1254 (10%), Method: PREINCUBATION) read?
A: inactive; negative

Q: And the mutagenic call (Test System: AMES SALMONELLA TYPHIMURIUM, Strain/Indicator: TA97, Metabolic Activation: HAMSTER, LIVER, S-9, AROCLOR 1254 (30%), Method: PREINCUBATION)?
A: inactive; negative

Q: And the mutagenic call [1]?
A: inactive; negative

Q: What about the mutagenic call (Test System: AMES SALMONELLA TYPHIMURIUM, Strain/Indicator: TA97, Metabolic Activation: RAT, LIVER, S-9, AROCLOR 1254 (10%), Method: PREINCUBATION) of the same compound?
A: inactive; negative

Q: What about the mutagenic call (Test System: AMES SALMONELLA TYPHIMURIUM, Strain/Indicator: TA97, Metabolic Activation: RAT, LIVER, S-9, AROCLOR 1254 (30%), Method: PREINCUBATION) of the same compound?
A: inactive; negative

Q: What about the mutagenic call (Test System: AMES SALMONELLA TYPHIMURIUM, Strain/Indicator: TA98, Metabolic Activation: HAMSTER, LIVER, S-9, AROCLOR 1254 (10%), Method: PREINCUBATION) of the same compound?
A: inactive; negative

Q: What about the mutagenic call (Test System: AMES SALMONELLA TYPHIMURIUM, Strain/Indicator: TA98, Metabolic Activation: HAMSTER, LIVER, S-9, AROCLOR 1254 (30%), Method: PREINCUBATION) of the same compound?
A: inactive; negative

Q: What about the mutagenic call [2] of the same compound?
A: inactive; negative

Q: What about the mutagenic call (Test System: AMES SALMONELLA TYPHIMURIUM, Strain/Indicator: TA98, Metabolic Activation: RAT, LIVER, S-9, AROCLOR 1254 (10% & 30%), Method: PREINCUBATION) of the same compound?
A: inactive; negative

Q: What about the mutagenic call (Test System: AMES SALMONELLA TYPHIMURIUM, Strain/Indicator: TA100, Metabolic Activation: HAMSTER, LIVER, S-9, AROCLOR 1254 (10%), Method: PREINCUBATION) of the same compound?
A: inactive; negative

Q: What about the mutagenic call (Test System: AMES SALMONELLA TYPHIMURIUM, Strain/Indicator: TA100, Metabolic Activation: HAMSTER, LIVER, S-9, AROCLOR 1254 (30%), Method: PREINCUBATION) of the same compound?
A: inactive; negative

Q: What about the mutagenic call [3] of the same compound?
A: inactive; negative

Q: And the mutagenic call (Test System: AMES SALMONELLA TYPHIMURIUM, Strain/Indicator: TA100, Metabolic Activation: RAT, LIVER, S-9, AROCLOR 1254 (10%), Method: PREINCUBATION)?
A: inactive; negative

Q: What about the mutagenic call (Test System: AMES SALMONELLA TYPHIMURIUM, Strain/Indicator: TA100, Metabolic Activation: RAT, LIVER, S-9, AROCLOR 1254 (30%), Method: PREINCUBATION) of the same compound?
A: inactive; negative

Q: What about the mutagenic call (Test System: AMES SALMONELLA TYPHIMURIUM, Strain/Indicator: TA1535, Metabolic Activation: HAMSTER, LIVER, S-9, AROCLOR 1254 (10%), Method: PREINCUBATION) of the same compound?
A: inactive; negative

Q: And the mutagenic call [4]?
A: inactive; negative

Q: What about the mutagenic call (Test System: AMES SALMONELLA TYPHIMURIUM, Strain/Indicator: TA1535, Metabolic Activation: RAT, LIVER, S-9, AROCLOR 1254 (10%), Method: PREINCUBATION) of the same compound?
A: inactive; negative

Q: And the mutagenic call (Test System: AMES SALMONELLA TYPHIMURIUM, Strain/Indicator: TA1535, Metabolic Activation: RAT, LIVER, S-9, AROCLOR 1254 (30%), Method: PREINCUBATION)?
A: inactive; negative

Q: `CNC(=O)Oc1cccc2c1OC(C)(C)C2O` (stereo not given) was tested. Which mutagenic call [5] did it give?
A: active; positive

Q: How did the mutagenic call [3] turn out when `NCCc1c[nH]c2ccc(O)cc12` was run?
A: inactive; negative

Q: Which results are given for `CNC(=O)Oc1cccc2c1OC(C)(C)C2`?
A: mutagenic call (End Point: CHROMOSOMAL ABERRATIONS, Test System: BONE MARROW, Species: MOUSE, Strain/Sex: SWISS/MALE, Route: GAVAGE): active; positive (structural changes); mutagenic call [5]: inactive; negative; mutagenic call (Test System: AMES SALMONELLA TYPHIMURIUM, Strain/Indicator: TA97A, Metabolic Activation: NONE, Method: STANDARD PLATE): inactive; negative; mutagenic call (Test System: AMES SALMONELLA TYPHIMURIUM, Strain/Indicator: TA98, Metabolic Activation: NONE, Method: STANDARD PLATE): inactive; negative; mutagenic call [6]: inactive; negative; mutagenic call (Test System: AMES SALMONELLA TYPHIMURIUM, Strain/Indicator: TA102, Metabolic Activation: NONE, Method: STANDARD PLATE): inactive; negative; mutagenic call (Test System: AMES SALMONELLA TYPHIMURIUM, Strain/Indicator: TA104, Metabolic Activation: NONE, Method: STANDARD PLATE): inactive; negative; mutagenic call (Test System: AMES SALMONELLA TYPHIMURIUM, Strain/Indicator: TA1535, Metabolic Activation: NONE, Method: STANDARD PLATE): inactive; negative

Q: What does the source list for `C1CC2OC2CC1C1CO1` (stereo not given)?
A: mutagenic call (Test System: AMES SALMONELLA TYPHIMURIUM, Strain/Indicator: TA98, Metabolic Activation: HAMSTER, LIVER, S-9, AROCLOR 1254, Method: PREINCUBATION): active; positive; mutagenic call [2]: active; positive; mutagenic call (Test System: AMES SALMONELLA TYPHIMURIUM, Strain/Indicator: TA98, Metabolic Activation: RAT, LIVER, S-9, AROCLOR 1254, Method: PREINCUBATION): active; positive; mutagenic call (Test System: AMES SALMONELLA TYPHIMURIUM, Strain/Indicator: TA100, Metabolic Activation: HAMSTER, LIVER, S-9, AROCLOR 1254, Method: PREINCUBATION): active; positive; mutagenic call [3]: active; positive; mutagenic call (Test System: AMES SALMONELLA TYPHIMURIUM, Strain/Indicator: TA100, Metabolic Activation: RAT, LIVER, S-9, AROCLOR 1254, Method: PREINCUBATION): active; positive; mutagenic call (Test System: AMES SALMONELLA TYPHIMURIUM, Strain/Indicator: TA1535, Metabolic Activation: HAMSTER, LIVER, S-9, AROCLOR 1254, Method: PREINCUBATION): active; positive; mutagenic call [4]: active; positive; mutagenic call (Test System: AMES SALMONELLA TYPHIMURIUM, Strain/Indicator: TA1535, Metabolic Activation: RAT, LIVER, S-9, AROCLOR 1254, Method: PREINCUBATION): active; positive; mutagenic call (Test System: AMES SALMONELLA TYPHIMURIUM, Strain/Indicator: TA1537, Metabolic Activation: HAMSTER, LIVER, S-9, AROCLOR 1254, Method: PREINCUBATION): active; positive; mutagenic call (Test System: AMES SALMONELLA TYPHIMURIUM, Strain/Indicator: TA1537, Metabolic Activation: RAT, LIVER, S-9, AROCLOR 1254, Method: PREINCUBATION): active; positive; mutagenic call (Test System: MOUSE LYMPHOMA, Strain/Indicator: L5178Y (TK+/TK-), Metabolic Activation: NONE, Method: SUSPENSION/PLATE): active; positive

Q: Which results are given for `CC(=O)N[C@@H](CS/C(Cl)=C/Cl)C(=O)O`?
A: mutagenic call (Test System: AMES SALMONELLA TYPHIMURIUM, Strain/Indicator: TA2638, Metabolic Activation: NONE, Method: PREINCUBATION): active; positive; mutagenic call (Test System: AMES SALMONELLA TYPHIMURIUM, Strain/Indicator: TA2638, Metabolic Activation: RAT, KIDNEY, CYTOSOL, Method: PREINCUBATION): active; positive

Q: `CC(=O)OO` was tested. Which mutagenic call (Test System: AMES SALMONELLA TYPHIMURIUM, Strain/Indicator: TA97, Metabolic Activation: HAMSTER, LIVER, S-9, AROCLOR 1254 (10 OR 30%), Method: PREINCUBATION) did it give?
A: inactive; negative

Q: And the mutagenic call [1]?
A: inactive; negative

Q: And the mutagenic call (Test System: AMES SALMONELLA TYPHIMURIUM, Strain/Indicator: TA97, Metabolic Activation: RAT, LIVER, S-9, AROCLOR 1254 (10 OR 30%), Method: PREINCUBATION)?
A: inactive; negative

Q: And the mutagenic call (Test System: AMES SALMONELLA TYPHIMURIUM, Strain/Indicator: TA98, Metabolic Activation: HAMSTER, LIVER, S-9, AROCLOR 1254 (10 OR 30%), Method: PREINCUBATION)?
A: inactive; negative

Q: And the mutagenic call [2]?
A: inactive; negative

Q: What about the mutagenic call (Test System: AMES SALMONELLA TYPHIMURIUM, Strain/Indicator: TA98, Metabolic Activation: RAT, LIVER, S-9, AROCLOR 1254 (10 OR 30%), Method: PREINCUBATION) of the same compound?
A: inactive; negative

Q: What about the mutagenic call (Test System: AMES SALMONELLA TYPHIMURIUM, Strain/Indicator: TA100, Metabolic Activation: HAMSTER, LIVER, S-9, AROCLOR 1254 (10 OR 30%), Method: PREINCUBATION) of the same compound?
A: inactive; negative

Q: And the mutagenic call [3]?
A: inactive; negative

Q: And the mutagenic call (Test System: AMES SALMONELLA TYPHIMURIUM, Strain/Indicator: TA100, Metabolic Activation: RAT, LIVER, S-9, AROCLOR 1254 (10 OR 30%), Method: PREINCUBATION)?
A: inactive; negative

Q: And the mutagenic call (Test System: AMES SALMONELLA TYPHIMURIUM, Strain/Indicator: TA1535, Metabolic Activation: HAMSTER, LIVER, S-9, AROCLOR 1254 (10 OR 30%), Method: PREINCUBATION)?
A: inactive; negative

Q: And the mutagenic call [4]?
A: inactive; negative

Q: And the mutagenic call (Test System: AMES SALMONELLA TYPHIMURIUM, Strain/Indicator: TA1535, Metabolic Activation: RAT, LIVER, S-9, AROCLOR 1254 (10 OR 30%), Method: PREINCUBATION)?
A: inactive; negative

Q: `CCCCCN1C2c3ccccc3-c3ccccc3C21` (stereo not given) was tested. Which mutagenic call [6] did it give?
A: active; positive
